Laboratory results reported in ChEMBL document CHEMBL4665667, “Lowering Lipophilicity by Adding Carbon: AzaSpiroHeptanes, a logD Lowering Twist” (ACS Med Chem Lett, 2019).

Experiments:
[1] = Dissociation constant, pKa of compound; type: physicochemical
[2] = Apparent permeability in human Caco2 cells at 10 uM; type: ADME, cell-based; conditions: Caco-2
[3] = Lipophilicity, logD of compound at pH 7.4 by Shake-flask distribution coefficient method; type: physicochemical; conditions: octanol/water
[4] = Intrinsic clearance in human liver microsomes; type: ADME, Microsome; conditions: read-out: CLH
[5] = Intrinsic clearance in human hepatocytes assessed per 10^6 cells; type: ADME, cell-based, Hepatocyte; conditions: read-out: CLH
[6] = Intrinsic clearance in rat hepatocytes assessed per 10^6 cells; type: ADME, cell-based, Hepatocyte; conditions: read-out: CLH
[7] = Apparent permeability across apical to basolateral side in MDCK cells incubated at 10 uM; type: ADME, cell-based, Canis lupus familiaris; conditions: dog
[8] = Lipophilicity, logD of compound in octanol and buffer in pH 7.4 incubated for 30 mins under shaking condition by LC/UV analysis; type: physicochemical
[9] = target: T1, Glucose-dependent insulinotropic receptor (Homo sapiens, UniProt Q8TDV5); assay: Agonist activity at human GPR119 expressed in HEK293 cells assessed as increase in cAMP level incubated for 45 mins by cAMP HTRF assay; type: functional, cell-based
T1 sequence (Q8TDV5 whole entry): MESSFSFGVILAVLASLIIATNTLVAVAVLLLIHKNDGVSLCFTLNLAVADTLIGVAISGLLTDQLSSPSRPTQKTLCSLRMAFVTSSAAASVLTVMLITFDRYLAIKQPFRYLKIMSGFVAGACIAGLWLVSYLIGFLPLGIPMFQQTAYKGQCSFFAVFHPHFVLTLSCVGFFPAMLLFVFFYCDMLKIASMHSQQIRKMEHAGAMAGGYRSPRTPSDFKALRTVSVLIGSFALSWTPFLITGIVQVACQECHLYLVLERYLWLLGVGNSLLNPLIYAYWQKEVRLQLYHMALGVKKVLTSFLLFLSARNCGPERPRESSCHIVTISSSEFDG

pKa [1]	Papp at 10 µM [2]	logD [3]	microsomal CLint [4]	hepatocyte CLint [5]	hepatocyte CLint [6]	Papp A→B at 10 µM [7]	logD at 0.5 h [8]	EC50 [9]	SMILES
8.2	4.1 ×10⁻⁶ cm/s	0.8	< 3 µL/min/mg	< 1 µL/min/1e6 cells	8 µL/min/1e6 cells				c1nc(N[C@H]2CC[C@H](N3CC4(COC4)C3)CC2)c2c(C3CCOCC3)c[nH]c2n1
						17 ×10⁻⁶ cm/s	2.5	16 µM	CC(C)(C)OC(=O)N1CC2(C1)CN(c1ncc(OCc3ccncc3C#N)cn1)C2
